# Earlier results, collected in patent US20100255118A1, “ORAL ZINC MEDICANTS USEFUL FOR SAFELY LOWERING FREE COPPER ABSORPTION AND FREE COPPER LEVELS” (priority 2007, published 2010).
# Assays:
# [1] = infant rhesus monkeys
# [2] = adequate intake by mothers prior to pregnancy
# [3] = Wilson's patients
# [4] = humans, oral dose of Cu64 as copper acetate
compound,measurement,setting,value
[67Cu] [Cu^67],copper absorption,[1],50-70%
Nc1nc2ncc(CNc3ccc(C(=O)N[C@@H](CCC(=O)O)C(=O)O)cc3)nc2c(=O)[nH]1 [folic acid],reduction of the incidence of NTDs,[2],up to 70%
[Zn] [zinc],time to achieve intestinal metallothionein induction and a negative copper balance,[3],approximately two
same,copper balance induced (average),[3]; at the two week point,−0.35 mg daily
copper acetate,oral dose absorbed from the gastrointestinal tract,[4],about 65%
same,oral dose absorbed from the gastrointestinal tract (range),[4]; range,15-97%
